Assay in all cases: selective drug sensitivity score (sDSS, relative to normal bone marrow) (sDSS (score)); higher = more potent and effective on the cell line relative to normal bone marrow cells
Conditions in all cases: 72 h

Experiment [1] concerns JURKAT.
Experiment [2] has as its system CCRF-CEM.
Experiment [3] deals with 380.
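Note: ALL cell lines in 384-well plates, five doses spanning 10,000-fold, each plate scaled between vehicle and 100 µmol/L benzalkonium chloride controls, sDSS an adapted area-under-curve metric.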

Turning to `CO[C@H]1C[C@@H]2CC[C@@H](C)[C@@](O)(O2)C(=O)C(=O)N2CCCC[C@H]2C(=O)O[C@H]([C@H](C)C[C@@H]2CC[C@@H](OC(=O)C(C)(CO)CO)[C@H](OC)C2)CC(=O)[C@H](C)/C=C(\C)[C@@H](O)[C@@H](OC)C(=O)[C@H](C)C[C@H](C)/C=C/C=C/C=C/1C` [Temsirolimus] (top concentration 100 nM), the “selective drug sensitivity score” value in experiment [1] was -0.54; in experiment [2] it was 7.76; in experiment [3], 25.5.

Take `O=C(c1cc(Cc2n[nH]c(=O)c3ccccc23)ccc1F)N1CCN(C(=O)C2CC2)CC1` [Olaparib] (top concentration 10000 nM): the figures for the “selective drug sensitivity score” value in experiment [1], in experiment [2] and in experiment [3] were 1.58, 3.78 and 26.8, respectively.

`O=C(O)C(=O)O.[NH-][C@@H]1CCCC[C@H]1[NH-].[Pt+2]` [Oxaliplatin] (top concentration 100000 nM): the “selective drug sensitivity score” value in experiment [1] is 5.52; in experiment [2], 8.22; in experiment [3], 10.6.

Consider `Nc1ncn([C@H]2C[C@H](O)[C@@H](CO)O2)c(=O)n1` [Decitabine] (top concentration 10000 nM), for which the “selective drug sensitivity score” value in experiment [1] turned out to be 4.04; in experiment [2], 4.44; in experiment [3], 9.14.

As to `CC(C)(C#N)c1cc(Cn2cncn2)cc(C(C)(C)C#N)c1` [Anastrozole] (top concentration 10000 nM), the “selective drug sensitivity score” value in experiment [1], in experiment [2] and in experiment [3] was 0 each time.

`Nc1nc(OCc2cc(Br)cs2)c2[nH]cnc2n1` [Lomeguatrib] (top concentration 10000 nM): the “selective drug sensitivity score” value in experiment [1], in experiment [2] and in experiment [3] was 0 each time.

Take `CCOC(=O)C1=CCCC[C@H]1S(=O)(=O)Nc1ccc(F)cc1Cl` [Resatorvid] (top concentration 10000 nM): the “selective drug sensitivity score” value in experiment [1], in experiment [2] and in experiment [3] was 0 in each case.

Turning to `CS(=O)(=O)N1CCN(Cc2cc3nc(-c4cccc5[nH]ncc45)nc(N4CCOCC4)c3s2)CC1` [Pictilisib] (top concentration 10000 nM), the “selective drug sensitivity score” value in experiment [1] turned out to be 0.36; in experiment [2] it was 5.36; in experiment [3] it was 16.4.

As for `Cc1cc(OCc2nnc(SC3CCCC3)n2-c2cccnc2)ccc1-c1ccc(S(C)(=O)=O)cc1` [NMS-873] (top concentration 10000 nM), the “selective drug sensitivity score” value in experiment [1] was 26.5; in experiment [2] it was 1.46; in experiment [3], -4.24.

Turning to `CNC(=O)CN1CCC(Oc2cc3c(Nc4cccc(Cl)c4F)ncnc3cc2OC)CC1` [Sapitinib] (top concentration 1000 nM), the “selective drug sensitivity score” value in experiment [1], in experiment [2] and in experiment [3] was 0 in each case.

For the molecule `Nc1nc(F)nc2c1ncn2[C@@H]1O[C@H](CO)[C@@H](O)[C@@H]1O` [Fludarabine] (top concentration 10000 nM), the “selective drug sensitivity score” value was -5.5 in experiment [1], 2.3 in experiment [2] and 6.9 in experiment [3].

As for `COc1cc([C@@H]2c3cc4c(cc3[C@@H](O[C@@H]3O[C@@H]5CO[C@@H](c6cccs6)O[C@H]5[C@H](O)[C@H]3O)[C@H]3COC(=O)[C@H]23)OCO4)cc(OC)c1O` [Teniposide] (top concentration 10000 nM), the “selective drug sensitivity score” value in experiment [1], in experiment [2] and in experiment [3] was 0 in each case.

Consider `Nc1ccn([C@@H]2O[C@H](CO)[C@@H](O)[C@@H]2O)c(=O)n1` [Cytarabine] (top concentration 10000 nM), for which the “selective drug sensitivity score” value in experiment [1] was found to be 17.9; in experiment [2], 25.7; in experiment [3] it was 22.2.

Turning to `Cc1sc2c(c1C)C(c1ccc(Cl)cc1)=N[C@@H](CC(=O)Nc1ccc(O)cc1)c1nnc(C)n1-2` [Birabresib] (top concentration 10000 nM), the “selective drug sensitivity score” value in experiment [1] is -1.98; in experiment [2], 1.22; in experiment [3] it was -9.68.

As for `COC(=O)c1ccc2c(c1)NC(=O)/C2=C(\Nc1ccc(N(C)C(=O)CN2CCN(C)CC2)cc1)c1ccccc1` [Nintedanib] (top concentration 10000 nM), the “selective drug sensitivity score” value was -4.86 in experiment [1], -1.46 in experiment [2] and -4.56 in experiment [3].

With `CCc1c2c(nc3ccc(O)cc13)-c1cc3c(c(=O)n1C2)COC(=O)[C@]3(O)CC` [SN-38] (top concentration 10000 nM), the entries for the “selective drug sensitivity score” value in experiment [1], in experiment [2] and in experiment [3] were 22.7, 27.6 and 27, respectively.

As for `CCN(CC)C(=S)SSC(=S)N(CC)CC` [Disulfiram(+CuCl2)] (top concentration 50000 nM), the “selective drug sensitivity score” value in experiment [1] was -2.12; in experiment [2] it was -2.12; in experiment [3], 1.58.

Consider `CCn1c(-c2nonc2N)nc2cnc(Oc3cccc(NC(=O)c4ccc(OCCN5CCOCC5)cc4)c3)cc21` (top concentration 10000 nM), for which the “selective drug sensitivity score” value in experiment [1] was 3.76; in experiment [2] it was 15.8; in experiment [3] it was 7.46.

As to `CC[C@@H](C(=O)[C@@H](C)[C@@H](O)[C@H](C)[C@@H]1O[C@@H]([C@@H](CC)C(=O)O)CC[C@@H]1C)[C@H]1O[C@]2(C=C[C@@H](O)[C@]3(CC[C@@](C)([C@H]4CC[C@](O)(CC)[C@H](C)O4)O3)O2)[C@H](C)C[C@@H]1C` [Salinomycin] (top concentration 50000 nM), the “selective drug sensitivity score” value in experiment [1] is 3.1; in experiment [2], 2; in experiment [3], 2.6.

Consider `COc1cccc2c1C(=O)c1c(O)c3c(c(O)c1C2=O)C[C@@](O)(C(C)=O)C[C@@H]3O[C@H]1C[C@H](N)[C@H](O)[C@H](C)O1` [Daunorubicin] (top concentration 1000 nM), for which the “selective drug sensitivity score” value in experiment [1] was 2.96; in experiment [2], 9.16; in experiment [3], 13.7.

Turning to `CO[C@H]1C[C@@H]2CC[C@@H](C)[C@@](O)(O2)C(=O)C(=O)N2CCCC[C@H]2C(=O)O[C@H]([C@H](C)C[C@@H]2CC[C@@H](OP(C)(C)=O)[C@H](OC)C2)CC(=O)[C@H](C)/C=C(\C)[C@@H](O)[C@@H](OC)C(=O)[C@H](C)C[C@H](C)/C=C/C=C/C=C/1C` [Ridaforolimus] (top concentration 100 nM), the “selective drug sensitivity score” value in experiment [1] stood at 0.26; in experiment [2], 7.36; in experiment [3], 24.5.

Turning to `O[C@H]1CC[C@H](Nc2ncc3nc(Nc4c(F)cc(F)cc4F)n([C@H]4CCOC4)c3n2)CC1` [Tanzisertib] (top concentration 10000 nM), the “selective drug sensitivity score” value in experiment [1], in experiment [2] and in experiment [3] was 0 each time.

For the molecule `CC(C)Oc1ccc(C(=O)N[C@H](CNC(=O)CN(C)C)Cc2ccc(-c3cn4cccc([C@H](C)O)c4n3)cc2)cc1Cl` (top concentration 10000 nM), the “selective drug sensitivity score” value is 13.6 in experiment [1], 16.2 in experiment [2] and 10.7 in experiment [3].

Take `Oc1nc(-c2ccc(C(F)(F)F)cc2)nc2c1CSCC2` [XAV939] (top concentration 10000 nM): the entries for the “selective drug sensitivity score” value in experiment [1], in experiment [2] and in experiment [3] were -0.14, -0.14 and 1.96, respectively.

The record behind these values is the supplement of paper PMC8967900.
